Source: publication PMC10636135, “Computational design of highly efficient thermostable MHET hydrolases and dual enzyme system for PET recycling” (Communications Biology, 2023)

What was measured:
[1] = tested on: T1, KL36F (fusion of KL-MHETase and FAST-PETase); test: initial rates, TPA by HPLC, Michaelis-Menten fit; assay type: biochemical, Geobacillus stearothermophilus; conditions: 50 mM sodium phosphate, pH 7.5, 50 °C
T1 construct: gene est; order judged from name; FAST-PETase moiety also hydrolyses MHET weakly; with Poly(ethylene terephthalate) hydrolase

[2] = target: T2, 1EVQ (thermostable scaffold) (Alicyclobacillus acidocaldarius, UniProt Q7SIG1); test: relative MHET hydrolysis activity; assay type: biochemical; conditions: 4.8 mM MHET, 0.25 μM enzyme, 50 mM sodium phosphate, pH 7.5, 50 °C, 10 min
T2 construct: synthesized codon-optimized gene, pET-22b(+), E. coli BL21(DE3); named only by PDB code

SMILES: O=C(O)c1ccc(C(=O)OCCO)cc1 [MHET]
- Km [1]: 4.52 ± 0.67 mM
- relative activity [2]: 1EVQ and 1TQH, exhibited apparent activity with regard to MHET hydrolysis
